Active and inactive are the calls of the source. The rule behind the calls is not given here.
Legend:
[1] = biological target: T1, Serine protease HTRA2, mitochondrial (Homo sapiens) (UniProt O43464); experiment: Binding affinity to recombinant human HTRA2 assessed as increase in fluorescence using H2-OPT as substrate at 1 uM by SDS-PAGE based gel fluorescence scanning analysis
T1 sequence (whole entry): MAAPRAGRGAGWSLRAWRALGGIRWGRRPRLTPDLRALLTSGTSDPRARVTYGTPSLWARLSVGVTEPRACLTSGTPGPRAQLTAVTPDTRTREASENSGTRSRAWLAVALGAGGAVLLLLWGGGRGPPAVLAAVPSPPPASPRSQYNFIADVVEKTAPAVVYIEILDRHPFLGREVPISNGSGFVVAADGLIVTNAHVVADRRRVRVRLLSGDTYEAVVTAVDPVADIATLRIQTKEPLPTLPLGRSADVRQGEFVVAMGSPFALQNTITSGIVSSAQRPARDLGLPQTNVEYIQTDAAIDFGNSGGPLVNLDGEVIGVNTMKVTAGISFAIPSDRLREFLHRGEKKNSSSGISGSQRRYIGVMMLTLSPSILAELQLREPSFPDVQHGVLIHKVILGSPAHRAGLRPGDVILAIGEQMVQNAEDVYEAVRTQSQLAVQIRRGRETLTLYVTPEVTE

[2] = biological target: T2, Periplasmic serine endoprotease DegP (Escherichia coli (strain K12)) (UniProt P0C0V0); experiment: Binding affinity to recombinant Escherichia coli DegP assessed as increase in fluorescence using H2-OPT as substrate at 1 uM by SDS-PAGE based gel fluorescence scanning analysis
T2 sequence (whole entry): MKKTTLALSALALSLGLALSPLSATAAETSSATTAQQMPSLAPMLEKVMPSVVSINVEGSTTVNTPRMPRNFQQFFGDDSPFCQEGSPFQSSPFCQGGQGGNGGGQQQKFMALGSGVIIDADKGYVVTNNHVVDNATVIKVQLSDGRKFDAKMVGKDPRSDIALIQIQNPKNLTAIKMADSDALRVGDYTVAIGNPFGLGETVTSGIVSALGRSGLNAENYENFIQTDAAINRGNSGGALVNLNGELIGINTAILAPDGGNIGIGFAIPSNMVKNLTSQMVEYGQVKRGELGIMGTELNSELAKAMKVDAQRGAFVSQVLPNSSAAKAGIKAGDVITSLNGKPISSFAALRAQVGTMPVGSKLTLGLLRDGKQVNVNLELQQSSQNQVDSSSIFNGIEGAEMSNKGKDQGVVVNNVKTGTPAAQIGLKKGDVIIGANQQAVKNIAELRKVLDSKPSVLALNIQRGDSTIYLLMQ

[3] = biological target: T3, Serine protease HTRA2, mitochondrial (Homo sapiens, UniProt O43464); experiment: Inhibition of recombinant human HTRA2 using H2-OPT as substrate assessed as increase in fluorescence and measured for 2 hrs by fluorescent plate reader analysis
T3 sequence (O43464 whole entry): T1 sequence (whole entry)

[4] = biological target: Albumin (Bos taurus, UniProt P02769); experiment: Binding affinity to bovine serum albumin in human U-87 MG cell culture media assessed as appearance of fluorescent bands at 5 uM by SDS-PAGE based In-gel fluorescence analysis; settings: cattle
[5] = biological target: Chymotrypsin (Homo sapiens) (UniProt Q99895+P17538+P40313+Q6GPI1); experiment: Binding affinity to recombinant human chymotrypsin assessed as increase in fluorescence using H2-OPT as substrate at 1 uM by SDS-PAGE based gel fluorescence scanning analysis; format: protein assay
[6] = biological target: Trypsin (Homo sapiens) (UniProt P07477+P07478+P35030); experiment: Binding affinity to recombinant human trypsin assessed as increase in fluorescence using H2-OPT as substrate at 1 uM by SDS-PAGE based gel fluorescence scanning analysis; format: protein assay
[7] = biological target: T4, Neutrophil elastase (Homo sapiens) (UniProt P08246); experiment: Binding affinity to recombinant human neutrophil elastase assessed as increase in fluorescence using H2-OPT as substrate at 1 uM by SDS-PAGE based gel fluorescence scanning analysis; format: single protein
T4 sequence (whole entry): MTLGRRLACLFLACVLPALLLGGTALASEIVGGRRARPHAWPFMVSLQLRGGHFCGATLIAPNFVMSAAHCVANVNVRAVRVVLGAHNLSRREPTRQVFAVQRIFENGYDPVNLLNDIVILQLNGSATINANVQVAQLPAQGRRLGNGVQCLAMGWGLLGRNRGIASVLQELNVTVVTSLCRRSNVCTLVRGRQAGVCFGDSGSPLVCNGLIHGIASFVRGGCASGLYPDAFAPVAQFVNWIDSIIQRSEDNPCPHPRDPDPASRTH

[8] = biological target: T5, Serine protease HTRA1 (Homo sapiens, UniProt Q92743); experiment: Inhibition of recombinant human HTRA1 using H2-OPT as substrate assessed as increase in fluorescence and measured for 2 hrs by fluorescent plate reader analysis
[9] = biological target: T5, Serine protease HTRA1; experiment: Inhibition of recombinant human HTRA1 using H2-OPT as substrate assessed as increase in fluorescence at 1 uM and measured for 2 hrs by fluorescent plate reader analysis
[10] = biological target: T1, Serine protease HTRA2, mitochondrial (Homo sapiens); experiment: Inhibition of recombinant human HTRA2 using H2-OPT as substrate assessed as increase in fluorescence at 1 uM and measured for 2 hrs by fluorescent plate reader analysis
[11] = biological target: T5, Serine protease HTRA1; experiment: Binding affinity to recombinant human HTRA1 in human serum assessed as appearance of fluorescent bands at 2 uM by In-gel fluorescence analysis; format: cell-free
[12] = biological target: T5, Serine protease HTRA1; experiment: Binding affinity to human HTRA1 in Amyloid-beta treated human U-87 MG cells assessed as appearance of fluorescent bands at 5 uM by SDS-PAGE based In-gel fluorescence analysis; format: cell-based
[13] = biological target: T5, Serine protease HTRA1; experiment: Binding affinity to human HTRA1 in human U-87 MG cells assessed as appearance of fluorescent bands at 5 uM by SDS-PAGE based In-gel fluorescence analysis; format: cell-based
[14] = biological target: Albumin (Homo sapiens, UniProt P02768); experiment: Binding affinity to human serum albumin assessed as appearance of fluorescent bands at 2 uM by SDS-PAGE based In-gel fluorescence analysis
[15] = biological target: T2, Periplasmic serine endoprotease DegP (Escherichia coli (strain K12)); experiment: Binding affinity to Escherichia coli DegP assessed as appearance of fluorescent bands at 1 to 50 uM incubated for 1 hrs by SDS-PAGE based gel fluorescence scanning analysis; settings: dose 1-50 µM
[16] = biological target: T2, Periplasmic serine endoprotease DegP (Escherichia coli (strain K12)); experiment: Binding affinity to Escherichia coli DegP assessed as appearance of fluorescent bands at 10 uM incubated for 2 hrs by SDS-PAGE based gel fluorescence scanning analysis

T5 sequence (Q92743 whole entry): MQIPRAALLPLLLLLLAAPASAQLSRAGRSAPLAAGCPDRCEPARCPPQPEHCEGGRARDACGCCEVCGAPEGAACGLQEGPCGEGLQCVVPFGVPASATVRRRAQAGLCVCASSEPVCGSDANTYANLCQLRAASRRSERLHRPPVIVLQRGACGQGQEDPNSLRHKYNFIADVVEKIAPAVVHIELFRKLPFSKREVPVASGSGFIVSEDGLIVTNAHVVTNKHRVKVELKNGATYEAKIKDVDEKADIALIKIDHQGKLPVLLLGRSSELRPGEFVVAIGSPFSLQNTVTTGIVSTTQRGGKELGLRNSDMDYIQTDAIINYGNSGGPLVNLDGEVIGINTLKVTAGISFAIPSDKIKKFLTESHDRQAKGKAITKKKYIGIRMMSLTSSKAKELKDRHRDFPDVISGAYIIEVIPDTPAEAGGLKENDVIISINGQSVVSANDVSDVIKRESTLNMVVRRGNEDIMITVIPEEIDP
Albumin (Homo sapiens, UniProt P02768), sequence (P02768 whole entry): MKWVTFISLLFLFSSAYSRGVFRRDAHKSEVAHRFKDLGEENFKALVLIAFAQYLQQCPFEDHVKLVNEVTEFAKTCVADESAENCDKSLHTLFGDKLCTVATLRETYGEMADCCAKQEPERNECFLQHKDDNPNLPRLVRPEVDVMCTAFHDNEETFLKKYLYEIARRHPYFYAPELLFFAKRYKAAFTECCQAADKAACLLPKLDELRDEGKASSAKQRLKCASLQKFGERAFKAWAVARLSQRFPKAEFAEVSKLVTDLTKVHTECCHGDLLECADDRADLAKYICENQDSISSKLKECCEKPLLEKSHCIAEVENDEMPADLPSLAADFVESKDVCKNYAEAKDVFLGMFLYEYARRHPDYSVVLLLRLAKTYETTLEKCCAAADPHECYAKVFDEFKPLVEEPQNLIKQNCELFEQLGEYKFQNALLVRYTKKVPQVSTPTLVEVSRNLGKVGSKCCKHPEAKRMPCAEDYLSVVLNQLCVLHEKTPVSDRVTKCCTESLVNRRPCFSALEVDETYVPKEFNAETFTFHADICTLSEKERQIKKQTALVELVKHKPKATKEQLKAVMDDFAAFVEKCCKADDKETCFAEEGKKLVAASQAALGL
Albumin (Bos taurus, UniProt P02769), sequence (P02769 whole entry): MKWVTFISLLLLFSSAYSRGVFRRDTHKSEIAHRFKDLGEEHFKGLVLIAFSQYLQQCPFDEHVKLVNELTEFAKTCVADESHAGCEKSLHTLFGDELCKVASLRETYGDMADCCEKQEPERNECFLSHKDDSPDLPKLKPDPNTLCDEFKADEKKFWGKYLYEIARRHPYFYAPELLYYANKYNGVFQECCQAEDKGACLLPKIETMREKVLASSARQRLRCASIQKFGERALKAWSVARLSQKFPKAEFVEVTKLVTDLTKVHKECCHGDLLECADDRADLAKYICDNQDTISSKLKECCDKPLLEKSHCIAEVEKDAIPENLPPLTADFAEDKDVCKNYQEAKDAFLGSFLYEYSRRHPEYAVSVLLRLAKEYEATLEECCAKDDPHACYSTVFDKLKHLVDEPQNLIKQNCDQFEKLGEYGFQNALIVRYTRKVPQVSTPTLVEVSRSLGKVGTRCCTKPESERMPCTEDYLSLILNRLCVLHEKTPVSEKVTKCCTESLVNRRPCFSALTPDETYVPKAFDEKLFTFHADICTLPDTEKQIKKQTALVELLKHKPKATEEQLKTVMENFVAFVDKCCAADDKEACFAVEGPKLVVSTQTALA

For `CC(C)C[C@H](NC(=O)CCCCCNC(=O)c1ccc(C(=O)O)c(-c2c3ccc(=O)cc-3oc3cc(O)ccc23)c1)C(=O)N[C@@H](Cc1ccccc1)C(=O)N[C@@H](CC1CC1)C(=O)N[C@@H](C(C)C)P(=O)(Oc1ccccc1)Oc1ccccc1`, the Activity [1] was “Active”, the Activity [2] was “inactive” and the IC50 [3] was 5.2 µM. The Activity [4] was “Active”.

For `CC(C)C[C@H](NC(=O)C1(NC(=O)[C@H](CCCCN)NC(=O)[C@H](Cc2ccccc2)NC(=O)CCCCCNC(=O)c2ccc(C(=O)O)c(-c3c4ccc(=O)cc-4oc4cc(O)ccc34)c2)CC1)P(=O)(Oc1ccccc1)Oc1ccccc1`, the Activity [5] was “inactive”, the Activity [1] was “inactive” and the Activity [2] was “inactive”. For the same molecule, the Activity [6] was “inactive” and the Activity [7] was “inactive”.

For `CC(C)C[C@H](NC(=O)[C@H](CCCCN)NC(=O)[C@H](Cc1ccc2ccccc2c1)NC(=O)CCCCCNC(=O)c1ccc(C(=O)O)c(-c2c3ccc(=O)cc-3oc3cc(O)ccc23)c1)C(=O)N[C@@H](CC(C)C)P(=O)(Oc1ccccc1)Oc1ccccc1`, the Activity [5] was “Active”, the Activity [1] was “Active” and the Activity [7] was “Active”.

`NCCc1ccc(S(=O)(=O)F)cc1` was tested, and the IC50 [8] was greater than 1000 µM, the inhibition [9] was 20% and the inhibition [10] was 20%. The IC50 [3] was greater than 1000 µM.

In the case of `CC[C@H](NC(=O)[C@H](CCCCN)NC(=O)[C@H](Cc1ccccc1)NC(=O)CCCCCNC(=O)c1ccc(C(=O)O)c(-c2c3ccc(=O)cc-3oc3cc(O)ccc23)c1)C(=O)N[C@@H](CC(C)C)P(=O)(Oc1ccccc1)Oc1ccccc1`, the Activity [2] is reported as “inactive”.

For `CC(C)[C@H](NC(=O)[C@H](CC(C)(C)C)NC(=O)[C@H](CCCCN)NC(=O)[C@H](Cc1ccccc1)NC(=O)CCCCCNC(=O)c1ccc(C(=O)O)c(-c2c3ccc(=O)cc-3oc3cc(O)ccc23)c1)P(=O)(Oc1ccccc1)Oc1ccccc1`, the Activity [2] was “inactive”.

In the case of `CC(C)C[C@H](NC(=O)CCCCCNC(=O)c1ccc(C(=O)O)c(-c2c3ccc(=O)cc-3oc3cc(O)ccc23)c1)C(=O)N[C@@H](Cc1ccccc1)C(=O)N[C@@H](CC(C)(C)C)C(=O)N[C@@H](C(C)C)P(=O)(Oc1ccccc1)Oc1ccccc1`, the Activity [1] is reported as “Active”, the Activity [2] is reported as “inactive” and the IC50 [3] is reported as 8.1 µM.

`O=C1C(=Cc2ccc(-c3ccccc3[N+](=O)[O-])o2)C(=O)N(c2ccccc2)C(=S)N1c1ccccc1` showed an IC50 [8] greater than 50 µM and an IC50 [3] of 18 µM.

`CC(C)C[C@H](NC(=O)CCCCCNC(=O)c1ccc(C(=O)O)c(-c2c3ccc(=O)cc-3oc3cc(O)ccc23)c1)C(=O)N[C@@H](Cc1ccc2ccccc2c1)C(=O)N[C@@H](CC(C)C)C(=O)N[C@@H](C(C)C)P(=O)(Oc1ccccc1)Oc1ccccc1` was tested, and the Activity [5] was “Active”, the Activity [1] was “Active” and the Activity [2] was “inactive”. The IC50 [3] was 5.4 µM and the Activity [7] was “Active”.

For `CC(C)[C@H](NC(=O)C1(NC(=O)[C@H](CCCCN)NC(=O)[C@H](Cc2ccccc2)NC(=O)CCCCCNC(=O)c2ccc(C(=O)O)c(-c3c4ccc(=O)cc-4oc4cc(O)ccc34)c2)CC1)P(=O)(Oc1ccccc1)Oc1ccccc1`, the Activity [5] was “inactive”, the Activity [1] was “inactive” and the Activity [2] was “inactive”. For the same molecule, the Activity [6] was “inactive” and the Activity [7] was “inactive”.

In the case of `CC(C)[C@H](NC(=O)[C@H](CC1CC1)NC(=O)[C@H](CCCCN)NC(=O)[C@H](Cc1ccccc1)NC(=O)CCCCCNC(=O)c1ccc(C(=O)O)c(-c2c3ccc(=O)cc-3oc3cc(O)ccc23)c1)P(=O)(Oc1ccccc1)Oc1ccccc1`, the IC50 [8] is reported as 6.3 µM, the Activity [1] is reported as “Active” and the Activity [11] is reported as “Active”. For the same molecule, the IC50 [3] was 8.3 µM, the Activity [12] was “Active” and the Activity [13] was “Active”. The Activity [14] was “Not Active”.

For `CC[C@H](NC(=O)[C@H](CCCCN)NC(=O)[C@H](Cc1ccccc1)NC(=O)CCCCCNC(=O)c1ccc(C(=O)O)c(-c2c3ccc(=O)cc-3oc3cc(O)ccc23)c1)C(=O)N[C@@H](C(C)C)P(=O)(Oc1ccccc1)Oc1ccccc1`, the Activity [15] was “Dose-Dependent Effect”, the Activity [16] was “Active” and the Activity [2] was “Active”. For the same molecule, the IC50 [3] was 27 µM.

`CC(C)C[C@H](NC(=O)CCCCCNC(=O)c1ccc(C(=O)O)c(-c2c3ccc(=O)cc-3oc3cc(O)ccc23)c1)C(=O)N[C@@H](Cc1ccccc1)C(=O)N[C@@H](CC(C)C)C(=O)N[C@@H](C(C)C)P(=O)(Oc1ccccc1)Oc1ccccc1` was tested, and the IC50 [8] was 2 µM, the Activity [11] was “Active” and the IC50 [3] was 7.8 µM. The Activity [13] was “Active” and the Activity [14] was “Not Active”.

With `CC(C)C[C@H](NC(=O)[C@H](CCCCN)NC(=O)[C@H](Cc1ccccc1)NC(=O)CCCCCNC(=O)c1ccc(C(=O)O)c(-c2c3ccc(=O)cc-3oc3cc(O)ccc23)c1)C(=O)N[C@@H](C(C)C)P(=O)(Oc1ccccc1)Oc1ccccc1` the Activity [2] was “Active” and the IC50 [3] was 24 µM.

For `CC(C)C[C@H](NC(=O)CCCCCNC(=O)c1ccc(C(=O)O)c(-c2c3ccc(=O)cc-3oc3cc(O)ccc23)c1)C(=O)N[C@@H](Cc1ccccc1)C(=O)NC1(C(=O)N[C@@H](C(C)C)P(=O)(Oc2ccccc2)Oc2ccccc2)CC1`, the Activity [5] was “inactive”, the Activity [1] was “inactive” and the Activity [2] was “inactive”. For the same molecule, the Activity [6] was “inactive” and the Activity [7] was “inactive”.

In the case of `CC(C)C[C@H](NC(=O)[C@H](CCCCN)NC(=O)[C@H](Cc1ccc2ccccc2c1)NC(=O)CCCCCNC(=O)c1ccc(C(=O)O)c(-c2c3ccc(=O)cc-3oc3cc(O)ccc23)c1)C(=O)N[C@@H](C(C)C)P(=O)(Oc1ccccc1)Oc1ccccc1`, the Activity [5] is reported as “Active”, the Activity [1] is reported as “Active” and the IC50 [3] is reported as 12 µM. For the same molecule, the Activity [7] was “Active”.
